Data from ChEMBL document CHEMBL1145288, “5-substituted, 6-substituted, and unsubstituted 3-heteroaromatic pyridine analogues of nicotine as selective inhibitors of cytochrome P-450 2A6” (J Med Chem, 2005).

Experiments:
[1] = molecular target: T1, Cytochrome P450 2A6 (Homo sapiens, UniProt P11509); assay: Effect on coumarin 7-hydroxylation by human Cytochrome P-450 2A6
T1 sequence (P11509 whole entry): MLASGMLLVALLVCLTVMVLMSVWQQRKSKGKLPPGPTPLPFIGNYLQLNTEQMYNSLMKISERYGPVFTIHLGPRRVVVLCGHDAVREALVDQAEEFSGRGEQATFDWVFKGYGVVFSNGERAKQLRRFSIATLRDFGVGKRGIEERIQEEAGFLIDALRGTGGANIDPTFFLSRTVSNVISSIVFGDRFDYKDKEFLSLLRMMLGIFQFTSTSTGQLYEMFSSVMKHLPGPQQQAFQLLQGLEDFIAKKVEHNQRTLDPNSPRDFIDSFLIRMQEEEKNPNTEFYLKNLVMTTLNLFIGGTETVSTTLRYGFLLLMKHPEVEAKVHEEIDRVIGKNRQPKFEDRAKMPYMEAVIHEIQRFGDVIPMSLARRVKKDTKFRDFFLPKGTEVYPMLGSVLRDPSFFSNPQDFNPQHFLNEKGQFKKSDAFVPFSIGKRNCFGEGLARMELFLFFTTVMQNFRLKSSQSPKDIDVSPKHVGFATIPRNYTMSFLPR

[2] = molecular target: Cytochrome P450 3A4 (Homo sapiens, UniProt P08684); assay: Inhibitory concentration value against human cytochrome P-450 3A4
Sequence of Cytochrome P450 3A4 (P08684 whole entry): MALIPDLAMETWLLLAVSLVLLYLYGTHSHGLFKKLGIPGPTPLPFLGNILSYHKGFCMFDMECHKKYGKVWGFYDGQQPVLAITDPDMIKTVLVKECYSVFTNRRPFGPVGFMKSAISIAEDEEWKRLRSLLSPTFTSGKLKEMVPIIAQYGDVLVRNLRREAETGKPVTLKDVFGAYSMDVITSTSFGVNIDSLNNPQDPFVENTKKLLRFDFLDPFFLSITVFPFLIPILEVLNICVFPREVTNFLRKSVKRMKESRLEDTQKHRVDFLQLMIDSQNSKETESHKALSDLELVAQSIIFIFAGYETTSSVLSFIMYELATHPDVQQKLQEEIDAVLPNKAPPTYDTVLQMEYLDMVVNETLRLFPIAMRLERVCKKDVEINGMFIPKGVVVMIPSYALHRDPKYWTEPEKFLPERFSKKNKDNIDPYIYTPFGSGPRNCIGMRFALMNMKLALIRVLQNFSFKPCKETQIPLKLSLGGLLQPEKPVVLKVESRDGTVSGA

[3] = system: CYP2C9 versus CYP2A6; assay: Ratio of inhibition of human cytochrome P-450 2C9 to 2A6 was determined; Expressed as IC50(CYP2C9)/IC50(CYP2A6)
[4] = system: CYP2D6 versus CYP2A6; assay: Ratio of inhibition of human cytochrome P-450 2D6 to 2A6 was determined; Expressed as IC50(CYP2D6)/IC50(CYP2A6)
[5] = system: CYP2C19 versus CYP2A6; assay: Ratio of inhibition of human cytochrome P-450 2C19 to 2A6 was determined; Expressed as IC50(CYP2C19)/IC50(CYP2A6)
[6] = molecular target: Cytochrome P450 2D6 (Homo sapiens, UniProt P10635); assay: Inhibitory concentration value against human cytochrome P-450 2D6
Sequence of Cytochrome P450 2D6 (P10635 whole entry): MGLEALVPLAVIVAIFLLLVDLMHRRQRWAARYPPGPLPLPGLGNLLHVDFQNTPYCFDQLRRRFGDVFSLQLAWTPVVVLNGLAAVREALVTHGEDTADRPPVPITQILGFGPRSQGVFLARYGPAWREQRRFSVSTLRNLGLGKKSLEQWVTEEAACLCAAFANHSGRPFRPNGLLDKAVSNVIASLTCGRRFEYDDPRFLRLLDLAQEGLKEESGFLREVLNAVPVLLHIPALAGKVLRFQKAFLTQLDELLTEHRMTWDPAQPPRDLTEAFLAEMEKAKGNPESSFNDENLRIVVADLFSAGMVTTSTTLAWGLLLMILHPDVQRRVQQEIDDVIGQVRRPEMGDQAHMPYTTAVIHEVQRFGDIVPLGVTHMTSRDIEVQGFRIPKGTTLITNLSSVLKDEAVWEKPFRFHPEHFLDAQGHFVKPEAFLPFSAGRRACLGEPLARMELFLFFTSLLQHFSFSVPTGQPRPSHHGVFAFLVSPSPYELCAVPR

[7] = molecular target: T2, Cytochrome P450 2B6 (Homo sapiens, UniProt P20813); assay: Inhibitory concentration value against human cytochrome P-450 2B6
T2 sequence (P20813 whole entry): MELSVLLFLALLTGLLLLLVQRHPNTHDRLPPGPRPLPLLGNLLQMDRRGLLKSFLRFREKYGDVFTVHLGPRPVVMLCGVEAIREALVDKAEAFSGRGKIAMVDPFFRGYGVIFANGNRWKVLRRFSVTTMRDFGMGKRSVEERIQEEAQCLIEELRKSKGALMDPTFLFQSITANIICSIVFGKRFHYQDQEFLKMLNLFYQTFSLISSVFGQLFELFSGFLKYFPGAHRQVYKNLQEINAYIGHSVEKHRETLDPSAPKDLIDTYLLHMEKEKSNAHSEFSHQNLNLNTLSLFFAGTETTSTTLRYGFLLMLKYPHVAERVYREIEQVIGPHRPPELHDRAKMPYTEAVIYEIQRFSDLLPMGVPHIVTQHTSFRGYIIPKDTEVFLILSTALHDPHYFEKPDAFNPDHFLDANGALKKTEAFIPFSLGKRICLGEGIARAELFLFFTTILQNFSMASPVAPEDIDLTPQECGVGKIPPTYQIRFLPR

[8] = system: CYP3A4 versus CYP2A6; assay: Ratio of inhibition of human cytochrome P-450 3A4 to 2A6 was determined; Expressed as IC50(CYP3A4)/IC50(CYP2A6)
[9] = molecular target: Cytochrome P450 2E1 (Homo sapiens, UniProt P05181); assay: Inhibitory concentration value against human cytochrome P-450 2E1
Sequence of Cytochrome P450 2E1 (P05181 whole entry): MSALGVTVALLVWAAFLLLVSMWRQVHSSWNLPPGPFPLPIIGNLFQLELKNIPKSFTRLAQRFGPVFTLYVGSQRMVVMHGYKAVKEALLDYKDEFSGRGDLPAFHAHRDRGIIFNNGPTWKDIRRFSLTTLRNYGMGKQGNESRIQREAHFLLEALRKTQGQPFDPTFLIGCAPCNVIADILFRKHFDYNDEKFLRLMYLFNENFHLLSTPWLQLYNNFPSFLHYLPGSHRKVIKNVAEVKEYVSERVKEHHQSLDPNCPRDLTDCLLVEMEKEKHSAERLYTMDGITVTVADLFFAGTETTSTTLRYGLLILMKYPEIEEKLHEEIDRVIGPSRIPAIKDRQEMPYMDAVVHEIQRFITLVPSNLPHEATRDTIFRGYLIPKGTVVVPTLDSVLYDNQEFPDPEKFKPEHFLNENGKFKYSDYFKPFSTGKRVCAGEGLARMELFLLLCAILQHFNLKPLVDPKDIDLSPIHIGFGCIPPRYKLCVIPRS

[10] = system: CYP2B6 versus CYP2A6; assay: Ratio of inhibition of human cytochrome P-450 2B6 to 2A6 was determined; Expressed as IC50(CYP2B6)/IC50(CYP2A6)
[11] = molecular target: Cytochrome P450 2C9 (Homo sapiens, UniProt P11712); assay: Inhibitory concentration against human cytochrome P-450 2C9
Sequence of Cytochrome P450 2C9 (P11712 whole entry): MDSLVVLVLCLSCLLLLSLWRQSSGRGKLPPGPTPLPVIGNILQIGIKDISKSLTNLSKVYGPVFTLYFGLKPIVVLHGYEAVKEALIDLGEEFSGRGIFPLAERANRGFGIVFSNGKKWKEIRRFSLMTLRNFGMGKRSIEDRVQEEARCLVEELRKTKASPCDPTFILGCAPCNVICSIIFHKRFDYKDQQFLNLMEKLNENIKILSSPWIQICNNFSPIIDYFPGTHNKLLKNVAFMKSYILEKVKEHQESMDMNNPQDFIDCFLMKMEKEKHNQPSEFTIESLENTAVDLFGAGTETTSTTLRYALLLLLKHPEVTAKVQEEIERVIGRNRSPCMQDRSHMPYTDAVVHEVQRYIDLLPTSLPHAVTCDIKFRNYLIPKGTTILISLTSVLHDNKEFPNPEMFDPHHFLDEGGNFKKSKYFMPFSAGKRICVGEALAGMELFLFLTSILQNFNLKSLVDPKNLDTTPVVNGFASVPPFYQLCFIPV

[12] = system: CYP2E1 versus CYP2A6; assay: Ratio of inhibition of human cytochrome P-450 2E1 to 2A6 was determined; Expressed as IC50(CYP2E1)/IC50(CYP2A6)
[13] = molecular target: Cytochrome P450 2C19 (Homo sapiens, UniProt P33261); assay: Inhibitory concentration value against human cytochrome P-450 2C19
Sequence of Cytochrome P450 2C19 (P33261 whole entry): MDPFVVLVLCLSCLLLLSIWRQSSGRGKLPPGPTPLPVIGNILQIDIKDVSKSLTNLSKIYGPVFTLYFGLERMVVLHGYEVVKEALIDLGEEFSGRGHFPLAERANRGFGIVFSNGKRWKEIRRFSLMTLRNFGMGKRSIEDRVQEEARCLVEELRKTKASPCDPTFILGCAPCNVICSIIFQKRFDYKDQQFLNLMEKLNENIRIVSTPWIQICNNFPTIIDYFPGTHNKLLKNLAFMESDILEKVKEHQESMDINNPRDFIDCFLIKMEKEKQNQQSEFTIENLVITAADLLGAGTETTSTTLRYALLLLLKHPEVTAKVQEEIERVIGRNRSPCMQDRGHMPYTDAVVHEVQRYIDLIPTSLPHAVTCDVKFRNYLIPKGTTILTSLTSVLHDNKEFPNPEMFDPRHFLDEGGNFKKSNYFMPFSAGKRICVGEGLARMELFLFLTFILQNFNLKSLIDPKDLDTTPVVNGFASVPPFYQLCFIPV

[14] = molecular target: T1, Cytochrome P450 2A6; assay: Inhibitory concentration value against human cytochrome P-450 2A6

| SMILES | Ki [1] | IC50 [6] | IC50 [7] | IC50 [9] | IC50 [11] | IC50 [13] | other results |
| --- | --- | --- | --- | --- | --- | --- | --- |
| Cc1cncc(-c2cscc2C)c1 | 0.17 µM | – | – | – | – | – | – |
| c1cncc(-c2ccc(CNCc3ccc(-c4cccnc4)s3)s2)c1 | – | – | – | – | – | – | IC50 [2]: > 400 µM |
| CC(=O)c1ccc(-c2cccnc2)s1 | 1.4 µM | 387 µM | 217 µM | > 400 µM | 98.2 µM | 62.7 µM | selectivity ratio [3]: 11; selectivity ratio [4]: 45; selectivity ratio [5]: 7; selectivity ratio [8]: 3.1; selectivity ratio [10]: 25; selectivity ratio [12]: > 46 |
| c1cncc(-c2cncnc2)c1 | 27.4 µM | – | – | – | – | – | – |
| c1ccc(-c2cccnc2)nc1 [[2,3'']Bipyridinyl] | 7.7 µM | – | – | – | – | – | – |
| c1cncc(-c2cccs2)c1 | – | > 400 µM | 70.8 µM | 4.1 µM | 99.2 µM | 178 µM | – |
| Cc1ccnc(-c2cccnc2)c1 | 5.1 µM | – | – | – | – | – | – |
| NCc1ccc(-c2cccnc2)o1 | – | – | – | – | – | – | selectivity ratio [4]: 4.1 |
| c1cncc(-c2ccsc2)c1 | 0.22 µM | 248 µM | 59.1 µM | > 400 µM | 96.3 µM | 111 µM | selectivity ratio [3]: 69; IC50 [2]: 56.9 µM; selectivity ratio [4]: 177; selectivity ratio [5]: 81; selectivity ratio [8]: 400; selectivity ratio [10]: 42; IC50 [14]: 1.4 µM; selectivity ratio [12]: > 286 |
| CNCC#Cc1cccnc1 | 0.89 µM | – | – | – | – | – | – |
| Cc1cscc1-c1ccc(F)nc1 | – | – | – | – | > 400 µM | – | – |
| CCn1cnc(-c2cccnc2)c1 | 0.52 µM | 344 µM | 83.1 µM | 80 µM | 75.2 µM | 46.4 µM | selectivity ratio [3]: 24; IC50 [2]: 79.2 µM; selectivity ratio [4]: 111; selectivity ratio [5]: 15; selectivity ratio [8]: 26; selectivity ratio [10]: 26; selectivity ratio [12]: 26 |
| Brc1cncc(-c2ccsc2)c1 | 4.5 µM | – | – | – | – | – | – |
| N=Cc1ccc(-c2cccnc2)s1.N=Cc1ccc(-c2cccnc2)s1.NCc1ccc(-c2cccnc2)s1 | – | 197 µM | 256 µM | 77.5 µM | – | – | IC50 [2]: 77.5 µM; IC50 [14]: 3.7 µM |
| COc1ccc(-c2sccc2C)cn1 | ≥ 67 µM | – | – | – | – | – | – |
| O=Cc1ccc(-c2cccnc2)o1 | ≥ 67 µM | – | – | – | – | – | – |
| Cc1ccc(-c2cccnc2)nc1 | 2.7 µM | – | – | – | – | – | – |
| O/N=C/c1ccc(-c2cccnc2)s1 | 0.24 µM | 191 µM | 214 µM | 4.2 µM | 223 µM | 37.2 µM | selectivity ratio [3]: 159; selectivity ratio [4]: 136; selectivity ratio [5]: 27; selectivity ratio [8]: 9.3; selectivity ratio [10]: 153; IC50 [14]: 1.4 µM; selectivity ratio [12]: 3 |
| Cc1nc(-c2cccnc2)c[nH]1 | 6.2 µM | – | – | – | – | – | – |

| SMILES | Ki [1] | IC50 [6] | IC50 [7] | IC50 [9] | IC50 [11] | IC50 [13] | other results |
| --- | --- | --- | --- | --- | --- | --- | --- |
| Cc1ccsc1-c1cncc(Br)c1 | 1.5 µM | – | – | – | – | – | – |
| Cc1cccc(-c2cccnc2)n1 | 9.8 µM | – | – | – | – | – | – |
| CNc1ccc(-c2cccnc2)s1 | 0.59 µM | 14.4 µM | 6.8 µM | 31.1 µM | 2.1 µM | 3.2 µM | selectivity ratio [3]: 0.6; IC50 [2]: 6.3 µM; selectivity ratio [4]: 4.1; selectivity ratio [5]: 0.9; selectivity ratio [8]: 2; selectivity ratio [10]: 1.9; IC50 [14]: 3.5 µM; selectivity ratio [12]: 8.9 |
| O/N=C/c1ccc(-c2cccnc2)o1.O/N=C\c1ccc(-c2cccnc2)o1 | – | > 400 µM | – | – | – | – | – |
| Cn1cnc(-c2cccnc2)c1 | 0.13 µM | 217 µM | 146 µM | 4.1 µM | 79.5 µM | 122 µM | selectivity ratio [4]: 289 |
| Cc1ccsc1-c1ccc(F)nc1 | 0.21 µM | – | – | – | – | – | – |
| CN1CCC[C@H]1c1cccnc1 [NICOTINE] | 4.4 µM | – | – | – | – | – | – |
| O/N=C/c1ccc(-c2cccnc2)o1 | 0.71 µM | > 400 µM | 372 µM | > 400 µM | 86.2 µM | 118 µM | selectivity ratio [3]: 1; IC50 [2]: > 400 µM; selectivity ratio [5]: 1.4 |
| Cc1cn(-c2cccnc2)cn1 | 0.17 µM | 297 µM | > 300 µM | 57.9 µM | > 300 µM | > 300 µM | IC50 [14]: 1 µM |
| O/N=C\c1ccc(-c2cccnc2)o1 | 13.7 µM | > 400 µM | 128 µM | > 400 µM | 398 µM | 279 µM | selectivity ratio [3]: 94; IC50 [2]: > 400 µM; selectivity ratio [4]: > 95; selectivity ratio [5]: 66; selectivity ratio [8]: > 95; IC50 [14]: 4.2 µM |
| O=[N+]([O-])c1ccc(-c2cccnc2)s1 | 19.7 µM | – | – | – | – | – | – |
| NCc1ccc(-c2cccnc2)cc1 | 1.4 µM | – | – | – | – | – | – |
| Fc1ccc(-c2ccsc2)cn1 | 0.97 µM | 199 µM | 72.1 µM | 7.2 µM | > 400 µM | 182 µM | selectivity ratio [3]: > 69; IC50 [2]: 114 µM; selectivity ratio [4]: 34; selectivity ratio [5]: 31; selectivity ratio [8]: 20; selectivity ratio [10]: 12; IC50 [14]: 5.8 µM; selectivity ratio [12]: 1.2 |
| COc1ccc(-c2cscc2C)cn1 | 6.6 µM | – | – | – | – | – | – |
| c1cncc(-c2cccnc2)c1 | – | > 300 µM | – | > 300 µM | > 300 µM | > 300 µM | – |
| Clc1ccc(-c2cccnc2)cn1 | 6.3 µM | – | – | – | – | – | – |
| c1cncc(-c2nccs2)c1 | 3.2 µM | – | – | – | – | – | – |
| c1cncc(-n2cnnn2)c1 | ≥ 67 µM | – | – | – | – | – | – |
| Cc1cccnc1-c1cccnc1 | 43.7 µM | – | – | – | – | – | – |
